Reference: ChEMBL document CHEMBL5653615 (J Biol Chem, 2013)

Assays:
[1] = target: Protein-tyrosine kinase 2-beta (Homo sapiens) (UniProt Q14289); assay: Inhibition of human PYK2 at 500 nM by HotSpot assay relative to control
[2] = target: Mitogen-activated protein kinase kinase kinase kinase 4 (Homo sapiens) (UniProt O95819); assay: Inhibition of human HGK at 500 nM by HotSpot assay relative to control
[3] = target: Vascular endothelial growth factor receptor 1 (Homo sapiens) (UniProt P17948); assay: Inhibition of human FLT1 at 500 nM by HotSpot assay relative to control
Chain of Vascular endothelial growth factor receptor 1 (Homo sapiens) (P17948 whole entry): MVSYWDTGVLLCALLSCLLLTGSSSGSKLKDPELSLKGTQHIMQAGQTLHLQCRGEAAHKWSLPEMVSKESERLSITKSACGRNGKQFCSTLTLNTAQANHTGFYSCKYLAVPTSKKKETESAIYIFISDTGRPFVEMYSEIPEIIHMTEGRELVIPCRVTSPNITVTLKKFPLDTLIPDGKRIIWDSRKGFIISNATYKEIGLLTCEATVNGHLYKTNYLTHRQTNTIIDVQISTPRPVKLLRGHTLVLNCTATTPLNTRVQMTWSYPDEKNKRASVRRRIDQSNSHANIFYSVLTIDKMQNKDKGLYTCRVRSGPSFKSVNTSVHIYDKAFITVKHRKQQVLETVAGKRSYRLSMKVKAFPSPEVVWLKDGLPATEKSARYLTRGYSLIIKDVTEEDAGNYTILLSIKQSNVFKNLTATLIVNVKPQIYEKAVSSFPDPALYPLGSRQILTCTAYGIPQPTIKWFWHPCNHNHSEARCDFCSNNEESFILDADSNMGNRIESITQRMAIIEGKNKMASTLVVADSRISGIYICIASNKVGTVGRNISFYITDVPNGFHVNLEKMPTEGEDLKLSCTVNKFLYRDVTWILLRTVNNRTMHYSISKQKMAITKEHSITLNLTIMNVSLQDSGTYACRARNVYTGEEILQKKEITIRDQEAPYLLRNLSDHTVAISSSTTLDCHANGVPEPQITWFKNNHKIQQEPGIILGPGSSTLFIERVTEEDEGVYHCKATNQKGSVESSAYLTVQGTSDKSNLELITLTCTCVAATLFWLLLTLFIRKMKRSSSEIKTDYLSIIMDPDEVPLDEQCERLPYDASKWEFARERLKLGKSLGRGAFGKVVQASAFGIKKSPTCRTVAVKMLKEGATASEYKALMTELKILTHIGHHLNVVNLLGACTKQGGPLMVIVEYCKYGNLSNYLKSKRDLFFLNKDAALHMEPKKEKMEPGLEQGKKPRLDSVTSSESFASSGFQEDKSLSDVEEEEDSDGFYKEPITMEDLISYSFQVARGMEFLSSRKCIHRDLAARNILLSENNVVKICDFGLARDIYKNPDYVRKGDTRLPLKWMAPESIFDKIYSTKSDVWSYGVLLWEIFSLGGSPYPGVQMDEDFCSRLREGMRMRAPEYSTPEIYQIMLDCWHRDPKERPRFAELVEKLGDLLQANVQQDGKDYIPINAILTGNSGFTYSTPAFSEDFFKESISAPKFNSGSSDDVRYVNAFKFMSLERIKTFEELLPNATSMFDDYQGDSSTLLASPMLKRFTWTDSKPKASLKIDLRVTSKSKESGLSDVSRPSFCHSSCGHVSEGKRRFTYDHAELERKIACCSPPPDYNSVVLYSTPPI

[4] = target: T1, Aurora kinase A (Homo sapiens) (UniProt O14965); assay: Inhibition of human Aurora A at 500 nM by HotSpot assay relative to control
T1 sequence (whole entry): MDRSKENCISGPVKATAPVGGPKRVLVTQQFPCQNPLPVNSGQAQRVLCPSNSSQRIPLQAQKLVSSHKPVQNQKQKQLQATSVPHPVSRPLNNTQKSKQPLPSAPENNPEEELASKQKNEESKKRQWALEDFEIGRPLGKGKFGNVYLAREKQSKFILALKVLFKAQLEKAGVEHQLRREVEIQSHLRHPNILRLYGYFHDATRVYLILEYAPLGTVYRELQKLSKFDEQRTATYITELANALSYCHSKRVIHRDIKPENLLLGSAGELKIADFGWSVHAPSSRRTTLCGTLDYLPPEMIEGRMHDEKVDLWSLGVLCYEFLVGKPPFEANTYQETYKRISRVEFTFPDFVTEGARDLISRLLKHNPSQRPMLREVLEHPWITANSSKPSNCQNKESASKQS

[5] = target: Tyrosine-protein kinase FRK (Homo sapiens) (UniProt P42685); assay: Inhibition of human FRK at 500 nM by HotSpot assay relative to control
Chain of Tyrosine-protein kinase FRK (Homo sapiens) (P42685 whole entry, the tested form may be a part): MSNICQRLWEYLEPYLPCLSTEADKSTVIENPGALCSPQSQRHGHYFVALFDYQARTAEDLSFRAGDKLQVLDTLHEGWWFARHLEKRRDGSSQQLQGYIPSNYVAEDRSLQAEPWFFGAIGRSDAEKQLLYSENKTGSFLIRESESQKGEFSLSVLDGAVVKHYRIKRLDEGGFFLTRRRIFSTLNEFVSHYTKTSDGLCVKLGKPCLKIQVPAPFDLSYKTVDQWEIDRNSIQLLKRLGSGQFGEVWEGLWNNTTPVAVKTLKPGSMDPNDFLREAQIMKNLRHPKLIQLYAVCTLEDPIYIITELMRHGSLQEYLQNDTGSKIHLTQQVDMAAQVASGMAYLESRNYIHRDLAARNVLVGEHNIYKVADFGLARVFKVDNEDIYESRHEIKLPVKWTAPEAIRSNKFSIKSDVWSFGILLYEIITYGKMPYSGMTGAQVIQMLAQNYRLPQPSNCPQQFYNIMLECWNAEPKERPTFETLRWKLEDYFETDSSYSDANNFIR

[6] = target: LIM domain kinase 1 (Homo sapiens) (UniProt P53667); assay: Inhibition of human LIMK1 at 500 nM by HotSpot assay relative to control
Chain of LIM domain kinase 1 (Homo sapiens) (P53667 whole entry, looked up, the tested form may be a part): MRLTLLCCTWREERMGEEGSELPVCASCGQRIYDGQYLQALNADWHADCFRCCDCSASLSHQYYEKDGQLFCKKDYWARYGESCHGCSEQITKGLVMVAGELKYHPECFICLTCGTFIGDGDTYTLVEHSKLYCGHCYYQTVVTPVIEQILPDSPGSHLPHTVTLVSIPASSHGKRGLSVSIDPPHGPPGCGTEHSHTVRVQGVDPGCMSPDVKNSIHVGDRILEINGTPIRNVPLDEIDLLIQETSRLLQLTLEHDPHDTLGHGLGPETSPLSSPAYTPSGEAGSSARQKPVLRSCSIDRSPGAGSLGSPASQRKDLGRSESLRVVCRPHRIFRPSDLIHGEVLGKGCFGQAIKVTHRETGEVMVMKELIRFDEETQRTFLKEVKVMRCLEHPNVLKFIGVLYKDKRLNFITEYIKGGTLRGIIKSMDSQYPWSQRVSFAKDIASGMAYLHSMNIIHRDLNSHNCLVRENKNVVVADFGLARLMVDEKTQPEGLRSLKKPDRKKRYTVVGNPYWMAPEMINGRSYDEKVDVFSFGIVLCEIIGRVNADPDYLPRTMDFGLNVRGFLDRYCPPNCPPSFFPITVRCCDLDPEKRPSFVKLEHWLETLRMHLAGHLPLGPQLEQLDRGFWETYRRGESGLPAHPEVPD

[7] = target: Serine/threonine-protein kinase PLK1 (Homo sapiens) (UniProt P53350); assay: Inhibition of human PLK1 at 500 nM by HotSpot assay relative to control
Chain of Serine/threonine-protein kinase PLK1 (Homo sapiens) (P53350 whole entry, canonical isoform): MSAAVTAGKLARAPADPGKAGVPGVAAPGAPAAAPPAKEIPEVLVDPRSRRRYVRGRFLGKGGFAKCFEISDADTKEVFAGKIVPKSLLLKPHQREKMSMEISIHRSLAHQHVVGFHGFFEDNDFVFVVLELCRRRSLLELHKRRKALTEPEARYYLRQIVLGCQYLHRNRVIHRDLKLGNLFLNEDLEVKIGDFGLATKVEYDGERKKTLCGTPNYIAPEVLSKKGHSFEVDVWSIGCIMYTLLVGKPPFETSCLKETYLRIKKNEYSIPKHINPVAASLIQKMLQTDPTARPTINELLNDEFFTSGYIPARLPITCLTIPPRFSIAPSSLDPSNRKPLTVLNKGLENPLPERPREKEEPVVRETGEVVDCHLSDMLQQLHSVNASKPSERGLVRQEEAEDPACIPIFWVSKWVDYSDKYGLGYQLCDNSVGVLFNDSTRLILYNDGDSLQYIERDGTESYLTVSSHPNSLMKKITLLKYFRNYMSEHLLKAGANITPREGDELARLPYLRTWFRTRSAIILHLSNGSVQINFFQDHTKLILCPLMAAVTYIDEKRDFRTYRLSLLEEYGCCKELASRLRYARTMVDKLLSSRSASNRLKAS

[8] = target: T2, Phosphorylase b kinase gamma catalytic chain, liver/testis isoform (Homo sapiens) (UniProt P15735); assay: Inhibition of human PHKg2 at 500 nM by HotSpot assay relative to control
T2 sequence (whole entry): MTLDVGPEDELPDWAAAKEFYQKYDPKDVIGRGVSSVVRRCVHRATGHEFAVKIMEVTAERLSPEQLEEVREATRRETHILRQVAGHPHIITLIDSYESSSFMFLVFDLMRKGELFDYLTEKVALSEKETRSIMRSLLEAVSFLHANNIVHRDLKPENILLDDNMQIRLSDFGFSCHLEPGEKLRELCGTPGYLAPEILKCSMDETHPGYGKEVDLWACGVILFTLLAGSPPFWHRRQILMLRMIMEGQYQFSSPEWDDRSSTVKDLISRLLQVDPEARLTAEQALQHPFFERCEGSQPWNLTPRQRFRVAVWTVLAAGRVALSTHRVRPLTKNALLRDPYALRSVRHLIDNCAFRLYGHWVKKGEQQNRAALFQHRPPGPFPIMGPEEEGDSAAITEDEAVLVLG

[9] = target: T3, Ephrin type-B receptor 1 (Homo sapiens) (UniProt P54762); assay: Inhibition of human EPHB1 at 500 nM by HotSpot assay relative to control
T3 sequence (whole entry): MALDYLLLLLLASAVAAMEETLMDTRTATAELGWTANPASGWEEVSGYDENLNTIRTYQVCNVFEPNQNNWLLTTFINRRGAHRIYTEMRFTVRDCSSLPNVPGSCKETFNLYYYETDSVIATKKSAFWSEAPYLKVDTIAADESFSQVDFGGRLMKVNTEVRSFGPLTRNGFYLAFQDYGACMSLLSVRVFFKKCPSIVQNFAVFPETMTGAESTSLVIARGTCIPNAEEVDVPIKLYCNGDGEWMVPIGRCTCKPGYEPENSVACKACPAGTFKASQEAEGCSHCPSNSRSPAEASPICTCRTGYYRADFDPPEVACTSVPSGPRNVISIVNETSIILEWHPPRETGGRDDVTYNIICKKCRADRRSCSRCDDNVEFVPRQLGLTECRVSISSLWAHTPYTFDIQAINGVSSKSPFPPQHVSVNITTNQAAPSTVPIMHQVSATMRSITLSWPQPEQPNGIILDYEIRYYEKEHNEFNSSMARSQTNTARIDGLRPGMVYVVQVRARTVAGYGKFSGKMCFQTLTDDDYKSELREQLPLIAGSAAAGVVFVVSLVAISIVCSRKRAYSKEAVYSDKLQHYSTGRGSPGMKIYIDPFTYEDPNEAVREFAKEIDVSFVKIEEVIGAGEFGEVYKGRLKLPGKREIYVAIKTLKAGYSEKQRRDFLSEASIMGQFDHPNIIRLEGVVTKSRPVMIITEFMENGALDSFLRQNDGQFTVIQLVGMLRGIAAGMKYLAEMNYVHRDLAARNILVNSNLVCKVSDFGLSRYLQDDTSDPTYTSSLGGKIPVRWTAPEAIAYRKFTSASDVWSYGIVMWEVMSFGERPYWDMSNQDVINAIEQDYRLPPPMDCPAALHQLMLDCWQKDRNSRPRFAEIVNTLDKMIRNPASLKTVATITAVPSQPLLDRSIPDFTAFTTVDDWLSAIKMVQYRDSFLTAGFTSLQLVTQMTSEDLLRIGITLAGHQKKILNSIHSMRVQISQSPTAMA

[10] = target: Glycogen synthase kinase-3 beta (Homo sapiens) (UniProt P49841); assay: Inhibition of human GSK3b at 500 nM by HotSpot assay relative to control
Chain of Glycogen synthase kinase-3 beta (Homo sapiens) (P49841 whole entry, looked up): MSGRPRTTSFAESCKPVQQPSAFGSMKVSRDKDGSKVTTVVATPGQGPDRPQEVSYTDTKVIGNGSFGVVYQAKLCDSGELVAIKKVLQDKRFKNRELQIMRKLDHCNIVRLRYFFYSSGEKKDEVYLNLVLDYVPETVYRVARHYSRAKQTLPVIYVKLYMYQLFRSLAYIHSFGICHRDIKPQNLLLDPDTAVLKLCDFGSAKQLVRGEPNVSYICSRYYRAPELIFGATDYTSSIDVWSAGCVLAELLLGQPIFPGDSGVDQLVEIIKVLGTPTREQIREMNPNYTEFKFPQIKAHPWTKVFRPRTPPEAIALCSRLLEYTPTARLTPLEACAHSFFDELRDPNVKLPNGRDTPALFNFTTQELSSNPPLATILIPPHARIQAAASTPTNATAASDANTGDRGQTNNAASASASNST

[11] = target: T4, Serine/threonine-protein kinase Nek2 (Homo sapiens) (UniProt P51955); assay: Inhibition of human NEK2 at 500 nM by HotSpot assay relative to control
T4 sequence (whole entry): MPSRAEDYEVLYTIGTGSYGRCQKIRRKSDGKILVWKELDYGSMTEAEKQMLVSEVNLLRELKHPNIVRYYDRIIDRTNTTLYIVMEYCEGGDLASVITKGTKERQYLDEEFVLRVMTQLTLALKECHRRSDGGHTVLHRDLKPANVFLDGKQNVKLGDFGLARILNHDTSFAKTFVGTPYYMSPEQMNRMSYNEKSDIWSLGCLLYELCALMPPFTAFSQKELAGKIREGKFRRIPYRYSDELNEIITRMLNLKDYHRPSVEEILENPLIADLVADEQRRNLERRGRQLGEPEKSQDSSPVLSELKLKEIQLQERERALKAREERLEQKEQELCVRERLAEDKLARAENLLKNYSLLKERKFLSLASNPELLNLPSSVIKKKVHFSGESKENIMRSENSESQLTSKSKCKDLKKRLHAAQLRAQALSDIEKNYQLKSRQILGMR

[12] = target: STE20/SPS1-related proline-alanine-rich protein kinase (Homo sapiens) (UniProt Q9UEW8); assay: Inhibition of human STLK3 at 500 nM by HotSpot assay relative to control

Chain of Protein-tyrosine kinase 2-beta (Homo sapiens) (Q14289 whole entry, looked up): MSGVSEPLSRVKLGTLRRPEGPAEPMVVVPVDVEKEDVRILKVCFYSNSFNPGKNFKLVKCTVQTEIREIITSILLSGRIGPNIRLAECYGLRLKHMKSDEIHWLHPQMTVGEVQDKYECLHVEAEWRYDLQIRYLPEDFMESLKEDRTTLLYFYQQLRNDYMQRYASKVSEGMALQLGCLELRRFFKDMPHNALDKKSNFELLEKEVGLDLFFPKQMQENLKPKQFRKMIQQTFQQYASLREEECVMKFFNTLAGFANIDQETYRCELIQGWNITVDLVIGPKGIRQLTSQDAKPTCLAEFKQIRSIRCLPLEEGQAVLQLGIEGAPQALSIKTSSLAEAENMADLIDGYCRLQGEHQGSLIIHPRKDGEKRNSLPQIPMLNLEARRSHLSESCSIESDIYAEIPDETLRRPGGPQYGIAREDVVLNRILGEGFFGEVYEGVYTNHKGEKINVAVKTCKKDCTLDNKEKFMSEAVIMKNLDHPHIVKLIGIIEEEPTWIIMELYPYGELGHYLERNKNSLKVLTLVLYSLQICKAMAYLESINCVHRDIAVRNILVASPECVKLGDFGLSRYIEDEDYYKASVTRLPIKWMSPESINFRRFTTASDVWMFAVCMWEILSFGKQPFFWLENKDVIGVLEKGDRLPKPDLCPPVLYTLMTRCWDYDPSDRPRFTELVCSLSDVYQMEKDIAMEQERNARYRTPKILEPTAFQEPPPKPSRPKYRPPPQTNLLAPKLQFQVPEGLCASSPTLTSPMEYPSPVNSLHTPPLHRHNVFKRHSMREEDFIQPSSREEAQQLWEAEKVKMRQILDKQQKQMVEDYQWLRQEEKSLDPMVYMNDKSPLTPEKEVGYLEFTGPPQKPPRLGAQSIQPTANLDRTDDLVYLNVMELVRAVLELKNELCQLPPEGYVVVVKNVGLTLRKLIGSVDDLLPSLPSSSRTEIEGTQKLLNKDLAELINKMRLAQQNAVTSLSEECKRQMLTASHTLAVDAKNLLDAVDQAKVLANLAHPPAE

SMILES: Nc1n[nH]c2nnc(-c3c(-c4ccccc4)nn4ccccc34)cc12
- inhibition [1]: 4.57%
- inhibition [2]: 38%
- inhibition [3]: 3.34%
- inhibition [4]: -0.77%
- inhibition [5]: -1.32%
- inhibition [6]: 1.81%
- inhibition [7]: 1.9%
- inhibition [8]: 17.4%
- inhibition [9]: 1.38%
- inhibition [10]: -9.06%
- inhibition [11]: 4.69%
- inhibition [12]: 10.9%

SMILES: Oc1n[nH]c2nnc(-c3c(-c4ccccc4)nn4ccccc34)cc12
- inhibition [1]: 2.81%
- inhibition [2]: 0.95%
- inhibition [3]: 0.38%
- inhibition [4]: 0.5%
- inhibition [5]: -4.01%
- inhibition [6]: -1.82%
- inhibition [7]: 2.92%
- inhibition [8]: 8.79%
- inhibition [9]: 2.52%
- inhibition [10]: -9.9%
- inhibition [11]: -3.97%
- inhibition [12]: 7.91%
